# Patent publication US20060104981A1, “Prophylactic/therapeutic agent for cancer” (priority 2002, published 2006)
# Columns and labels:
# Format in all cases: cell-based
# [1] = tested on: EZH2 (RNA) in colon cell line HCT116; assay: EZH2 (RNA) expression by quantitative PCR after siRNA transfection; conditions: 36 hours after transfection, siRNA 45 nM
# Excerpt: (§1) RNA Duplexes for the base sequence represented by SEQ ID NO: 3 (hereinafter briefly referred to as siRNA) were designed (SEQ ID NO: 11 and SEQ ID NO: 12) and provided for the transfection experiment using the synthetic duplexes (Qiagen, Inc.). For control siRNAs, commercially available Control (non-silencing) siRNAs (SEQ ID NO: 13 and SEQ ID NO: 14) (manufactured by Qiagen, Inc.) were used.
# (§2) Colon cell line HCT116 (purchased from ATCC) and lung cancer cell line NCI-H1299 (purchased from ATCC) were used as the test cells used for the following test. Forty-eight hours before transfection of siRNAs, 5×10^5 cells were plated on a 24-well plate (manufactured by Falcon Co., Ltd.). In transfection of these siRNAs, Lipofectamine 2000 (manufactured by Invitrogen Corp.) was used in accordance with its protocol. The final concentration of siRNAs was set at 45 nM. RNA was extracted 36 hours after the transfection, following the protocol of RNeasy Mini Kit (manufactured by Qiagen, Inc.) and cDNA was prepared using TaqMan Reverse Transcription Reagents (manufactured by Applied Biosystems, Inc.). Quantitative PCR was performed on ABI PRISM™ 7900HT Sequence Detector (manufactured by Applied Biosystems, Inc.), using two primers (SEQ ID NO: 6 and SEQ ID NO: 7) and a probe (SEQ ID NO: 8), as in EXAMPLE 4.
# [2] = tested on: EZH2 (RNA) in lung cancer cell line NCI-H1299; assay: as above; conditions: 36 hours after transfection, siRNA 45 nM
# Excerpt: as §1, §2
# [3] = tested on: lung cancer cell line NCI-H1299; assay: Apoptosis (caspase 3/7 activity, Caspase Glo-3/7 assay) after siRNA transfection; conditions: day 3 after transfection
# Method: as §1
# (§3) Meanwhile, 1×10^3 cells were seeded on a 96-well plate (manufactured by Falcon Co., Ltd.) to assess the effect on apoptosis. Forty-eight hours later, siRNA or control siRNA to EZH2 was transfected using Lipofectamine 2000 (manufactured by Invitrogen Corp.) as described above. On day 3 after the siRNA transfection, the caspase 3/7 activity as an indicator of apoptosis was compared by the Caspase Glo-3/7 assay (manufactured by Promega Corp.).
# colon cell line HCT116 = assay: as above; conditions: day 3 after transfection
# Method: as §1, §3
substance,measurement,setting,value
"siRNA to EZH2: RNA duplexes for the base sequence of SEQ ID NO: 3; antisense strand SEQ ID NO: 11, sense strand SEQ ID NO: 12 (antisense AAGUUGAACAGAAAGCUGCTT; sense GCAGCUUUCUGUUCAACUUTT; RNA duplexes, chemistry of the tt overhangs not given here)",expression of EZH2 (RNA) as compared to control siRNA (100%),[1],50%
same,expression of EZH2 (RNA) as compared to control siRNA (100%),[2],13%
same,apoptosis as compared to the control (100%),[3],143%
same,apoptosis as compared to the control (100%),colon cell line HCT116,185%
